These results are taken from ChEMBL document CHEMBL4513141, “CO-ADD screening of NIH (USA) - Clinical Collection” (2021).

The test system of test [1] is Candida albicans. Kind of test: microbe, parasite or virus in culture. Conditions: ATCC 90028, ASSAY_TEST Inhibition of Fungal Growth, detection method Absorption (OD530), plate type 384well, NBS, CORNING #3640.
Description: Antifungal activity against Candida albicans ATCC 90028 (CO-ADD:FG_001); MIC in YNB media using NBS plates, by OD630
Test [2] deals with Acinetobacter baumannii. The test can be described thus: microbe, parasite or virus in culture. Conditions: ATCC 19606, 18 h, ASSAY_TEST Inhibition of Bacterial Growth, detection method Absorption (OD600), MEDIA CAMHB, plate type 384well, NBS, CORNING #3640.
Description: Antibacterial activity against Acinetobacter baumannii ATCC 19606 (CO-ADD:GN_034); MIC in CAMBH media using NBS plates, by OD600
Test [3] has as its system Pseudomonas aeruginosa. The test can be described thus: microbe, parasite or virus in culture. Conditions: ATCC 27853, 18 h, ASSAY_TEST Inhibition of Bacterial Growth, detection method Absorption (OD600), MEDIA CAMHB, plate type 384well, NBS, CORNING #3640.
Description: Antibacterial activity against Pseudomonas aeruginosa ATCC 27853 (CO-ADD:GN_042); MIC in CAMBH media using NBS plates, by OD(600)
Test [4] concerns Klebsiella pneumoniae. The test can be described thus: microbe, parasite or virus in culture. Conditions: ATCC 700603, 18 h, ASSAY_TEST Inhibition of Bacterial Growth, detection method Absorption (OD600), MEDIA CAMHB, plate type 384well, NBS, CORNING #3640.
Description: Antibacterial activity against Klebsiella pneumoniae MDR ATCC 70063 (CO-ADD:GN_003); MIC in CAMBH media using NBS plates, by OD(600)
The test system of test [5] is Cryptococcus neoformans.
Description: Antifungal activity against Cryptococcus neoformans H99 ATCC 208821 (CO-ADD:FG_002); MIC in YNB media using NBS plates, by Resazurin OD(600-570)
In test [6] the test system is Escherichia coli. The test can be described thus: microbe, parasite or virus in culture. To be noted: ATCC 25922, 18 h, ASSAY_TEST Inhibition of Bacterial Growth, detection method Absorption (OD600), MEDIA CAMHB, plate type 384well, NBS, CORNING #3640.
Description: Antibacterial activity against Escherichia coli ATCC 25922 (CO-ADD:GN_001); MIC in CAMBH media using NBS plates, by OD(600)
Test [7] has as its system Staphylococcus aureus. Kind of test: microbe, parasite or virus in culture. To be noted: ATCC 43300, 18 h, ASSAY_TEST Inhibition of Bacterial Growth, detection method Absorption (OD600), MEDIA CAMHB, plate type 384well, NBS, CORNING #3640.
Description: Antibacterial activity against Staphylococcus aureus MRSA ATCC 43300 (CO-ADD:GP_020); MIC in CAMBH media, using NBS plates, by OD(600)
The subject of test [8] is HEK293. The test can be described thus: cells. Format: functional, Homo sapiens, ATCC CRL1573. To be noted: Homo sapiens, ATCC CRL1573, HEK293; ASSAY_TEST Inhibition of Cell Viability; detection method Resazurin; Fluorescence (ex560/em590); MEDIA DMEM with 10% FBS; plate type 384well; TC; CORNING #3712; time 18 hr.

Molecules are shown by their SMILES. ≈ marks a conversion by molar mass, not a printed value. Counter-ions that a name gives are not always drawn.

`CN(C)[C@@H]1C(O)=C(C(N)=O)C(=O)[C@@]2(O)C(O)=C3C(=O)c4c(O)cccc4[C@@](C)(O)[C@H]3C[C@@H]12` [TETRACYCLINE]: the MIC in test [1], in test [2], in test [3], in test [4], in test [5] and in test [6] was above 10 µM in each case. Also, in test [7], the MIC is above 10 µM. Moreover, the cytotoxic concentration (CC50) – broadly, the concentration that lowers cell viability or growth by half – in test [8] was above 10 µM.

Regarding `Clc1ccc(COC(Cn2ccnc2)c2ccc(Cl)cc2Cl)c(Cl)c1` (stereo not given) [MICONAZOLE NITRATE], the MIC was at most 0.0781 µM in test [1]; above 10 µM in test [2]; above 10 µM in test [3]; above 10 µM in test [4]; 0.625 µM in test [5]; above 10 µM in test [6]. Further, the MIC in test [7] is above 10 µM. In test [8], this compound returned a CC50 above 10 µM.

As for `CN(C)[C@@H]1C(=O)C(C(N)=O)=C(O)[C@@]2(O)C(O)=C3C(=O)c4c(O)cccc4[C@@](C)(O)[C@H]3[C@H](O)[C@@H]12`, the MIC in test [1] was above 10 µM; in test [2] it was above 10 µM; in test [3], 10 µM (≈ 4.6 µg/mL); in test [4], above 10 µM; in test [5], above 10 µM; in test [6], 5 µM (≈ 2.3 µg/mL). Besides, the MIC in test [7] came out at 1.25 µM (≈ 0.576 µg/mL). Besides, the CC50 in test [8] is above 10 µM.

On to `C=CC[C@@H]1C=C(C)C[C@H](C)C[C@H](OC)[C@H]2O[C@@](O)(C(=O)C(=O)N3CCCC[C@H]3C(=O)O[C@H](/C(C)=C/[C@@H]3CC[C@@H](O)[C@H](OC)C3)[C@H](C)[C@@H](O)CC1=O)[C@H](C)C[C@@H]2OC`, for which the MIC was above 10 µM in test [1]; above 10 µM in test [2]; above 10 µM in test [3]; above 10 µM in test [4]; at most 0.0781 µM in test [5]; above 10 µM in test [6]. Moreover, the MIC in test [7] is above 10 µM. The compound also showed a CC50 in test [8] above 10 µM.

Take `COc1c(N2CCNC(C)C2)c(F)cc2c(=O)c(C(=O)O)cn(C3CC3)c12` (stereo not given) [GATIFLOXACIN]: the MIC is above 10 µM in test [1]; 1.25 µM (≈ 0.469 µg/mL) in test [2]; 0.625 µM (≈ 0.235 µg/mL) in test [3]; 2.5 µM (≈ 0.939 µg/mL) in test [4]; above 10 µM in test [5]; at most 0.0781 µM in test [6]. The same compound showed an MIC in test [7] of 0.312 µM (≈ 0.117 µg/mL). The same compound registered a CC50 in test [8] above 10 µM.

`Cc1nnc(SCC2=C(C(=O)O)N3C(=O)C(NC(=O)Cn4cnnn4)C3SC2)s1` (stereo not given): the MIC in test [1], in test [2], in test [3], in test [4], in test [5] and in test [6] was above 10 µM each time. Moreover, the MIC in test [7] was above 10 µM. Also, in test [8], the CC50 is above 10 µM.

Take `O=c1[nH]cc(F)c(=O)[nH]1` [FLUOROURACIL]: the MIC in test [1] was above 10 µM; in test [2] it was above 10 µM; in test [3] it was above 10 µM; in test [4] it was above 10 µM; in test [5], 5 µM (≈ 0.65 µg/mL); in test [6], above 10 µM. Also, the MIC in test [7] stood at 2.5 µM (≈ 0.325 µg/mL). The compound further yielded a CC50 in test [8] above 10 µM.

`CCCCc1oc2ccccc2c1C(=O)c1cc(I)c(OCCN(CC)CC)c(I)c1` [AMIODARONE HYDROCHLORIDE]: the MIC was above 10 µM in test [1]; above 10 µM in test [2]; above 10 µM in test [3]; above 10 µM in test [4]; 10 µM in test [5]; above 10 µM in test [7]. The CC50 in test [8] is above 10 µM.

For `CN(C)C1C(=O)C(C(N)=O)=C(O)C2(O)C(=O)C3=C(O)c4c(O)ccc(Cl)c4C(O)C3CC12` (stereo not given), the MIC in test [1] was above 10 µM; in test [2], above 10 µM; in test [3], 2.5 µM (≈ 1.16 µg/mL); in test [4], above 10 µM; in test [5], above 10 µM; in test [6], 5 µM (≈ 2.32 µg/mL). The compound also yielded an MIC in test [7] of 1.25 µM (≈ 0.581 µg/mL). This compound also came in with a CC50 in test [8] above 10 µM.

Consider `NC(=O)c1ncn(C2OC(CO)C(O)C2O)n1` (stereo not given), for which the MIC in test [1], in test [2], in test [3], in test [4], in test [5] and in test [6] was above 10 µM in each case. Further, in test [7], the MIC was above 10 µM. The compound further showed a CC50 in test [8] above 10 µM.

Regarding `Cc1cn([C@H]2C[C@H](N=[N+]=[N-])[C@@H](CO)O2)c(=O)[nH]c1=O` [ZIDOVUDINE], the MIC in test [1] is above 10 µM; in test [2], above 10 µM; in test [3], above 10 µM; in test [4], 5 µM (≈ 1.34 µg/mL); in test [5] it was above 10 µM; in test [6] it was 5 µM (≈ 1.34 µg/mL). The compound also displayed an MIC in test [7] above 10 µM. In test [8], this compound had a CC50 above 10 µM.

Turning to `Oc1c(Cl)cc(Cl)c(Cl)c1Cc1c(O)c(Cl)cc(Cl)c1Cl` [HEXACHLOROPHENE], the MIC in test [1], in test [2], in test [3], in test [4], in test [5] and in test [6] was above 10 µM each time. Moreover, the MIC in test [7] worked out at 5 µM (≈ 2.03 µg/mL). This compound also had a CC50 in test [8] above 10 µM.

On to `COc1c(N2C[C@@H]3CCCN[C@@H]3C2)c(F)cc2c(=O)c(C(=O)O)cn(C3CC3)c12` [MOXIFLOXACIN HYDROCHLORIDE], for which the MIC was above 10 µM in test [1]; 2.5 µM in test [2]; 0.625 µM in test [3]; 5 µM in test [4]; above 10 µM in test [5]; at most 0.0781 µM in test [6]. In test [7], the MIC stood at 0.156 µM. The CC50 in test [8] was above 10 µM.

For the compound `CCOC(=O)C1=C(C)NC(C)=C(C(=O)OCC)C1c1ccccc1/C=C/C(=O)OC(C)(C)C` [LACIDIPINE], the MIC in test [1], in test [2], in test [3], in test [4], in test [5] and in test [6] was above 10 µM each time. In test [7], the MIC is above 10 µM. Moreover, the CC50 in test [8] is above 10 µM.

Regarding `CC1(C)SC2C(NC(=O)C(N)c3ccccc3)C(=O)N2C1C(=O)O` (stereo not given), the MIC in test [1], in test [2], in test [3], in test [4], in test [5] and in test [6] was above 10 µM throughout. In test [7], this compound yielded an MIC above 10 µM. This compound also showed a CC50 in test [8] above 10 µM.

In the case of `C[C@H]1O[C@H](O[C@H]2[C@H](O)[C@@H](O)[C@@H](O[C@H]3[C@H](O)[C@@H](O)C(O)O[C@@H]3CO)O[C@@H]2CO)[C@H](O)[C@@H](O)[C@@H]1N[C@H]1C=C(CO)[C@@H](O)[C@H](O)[C@H]1O` (stereo not given in full) [ACARBOSE], the MIC in test [1], in test [2], in test [3], in test [4], in test [5] and in test [6] was above 10 µM in each case. This compound also yielded an MIC in test [7] above 10 µM. In test [8], this compound registered a CC50 above 10 µM.

Consider `Nc1nc(=O)[nH]cc1F` [FLUCYTOSINE], for which the MIC is 0.625 µM (≈ 0.0807 µg/mL) in test [1]; above 10 µM in test [2]; above 10 µM in test [3]; above 10 µM in test [4]; 0.625 µM (≈ 0.0807 µg/mL) in test [5]; above 10 µM in test [6]. Also, in test [7], the MIC was above 10 µM. The compound further returned a CC50 in test [8] above 10 µM.
